PubChem BioAssay (NCI)
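Interpolation was linear, between the two tested concentrations surrounding the appropriate level; five concentrations were tested over 48 hours in 96-well plates. Abbreviation: GI50, concentration required for 50% inhibition of growth. TGI is the concentration that stops growth completely.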

Legend:
Test in all cases: NCI tumour cell line growth inhibition, 48 h
786-0 renal = system: 786-0 renal
A549 NSCLC = system: A549 NSCLC
CAKI-1 renal = system: CAKI-1 renal
CCRF-CEM leukemia = system: CCRF-CEM leukemia
COLO 205 colon = system: COLO 205 colon
DU-145 prostate = system: DU-145 prostate
EKVX NSCLC = system: EKVX NSCLC
HCC-2998 colon = system: HCC-2998 colon
HCT-15 colon = system: HCT-15 colon
HL-60(TB) leukemia = system: HL-60(TB) leukemia
HOP-62 NSCLC = system: HOP-62 NSCLC
HT29 colon = system: HT29 colon
IGROV1 ovarian = system: IGROV1 ovarian
K-562 leukemia = system: K-562 leukemia
KM12 colon = system: KM12 colon
M14 melanoma = system: M14 melanoma
MALME-3M melanoma = system: MALME-3M melanoma
MCF7 breast = system: MCF7 breast
MDA-MB-231 breast = system: MDA-MB-231 breast
MDA-N = system: MDA-N
MOLT-4 leukemia = system: MOLT-4 leukemia
NCI-H23 lung = system: NCI-H23 lung
OVCAR-8 ovarian = system: OVCAR-8 ovarian
PC-3 prostate = system: PC-3 prostate
RPMI-8226 leukemia = system: RPMI-8226 leukemia
RXF 393 renal = system: RXF 393 renal
SF-268 CNS = system: SF-268 CNS
SF-295 CNS = system: SF-295 CNS
SK-MEL-28 melanoma = system: SK-MEL-28 melanoma
SK-MEL-5 melanoma = system: SK-MEL-5 melanoma
SK-OV-3 ovarian = system: SK-OV-3 ovarian
SN12C renal = system: SN12C renal
SNB-75 CNS = system: SNB-75 CNS
SR leukemia = system: SR leukemia
SW-620 colon = system: SW-620 colon
T-47D breast = system: T-47D breast
TK-10 renal = system: TK-10 renal
UACC-257 melanoma = system: UACC-257 melanoma
UACC-62 melanoma = system: UACC-62 melanoma
A498 renal = system: A498 renal
ACHN renal = system: ACHN renal
BT-549 breast = system: BT-549 breast
HCT-116 colon = system: HCT-116 colon
HOP-92 NSCLC = system: HOP-92 NSCLC
HS 578T breast = system: HS 578T breast
LOX IMVI melanoma = system: LOX IMVI melanoma
MDA-MB-435 = system: MDA-MB-435
NCI-H226 lung = system: NCI-H226 lung
NCI-H460 lung = system: NCI-H460 lung
NCI-H522 lung = system: NCI-H522 lung
NCI/ADR-RES ovarian = system: NCI/ADR-RES ovarian
OVCAR-3 ovarian = system: OVCAR-3 ovarian
OVCAR-4 ovarian = system: OVCAR-4 ovarian
OVCAR-5 ovarian = system: OVCAR-5 ovarian
SF-539 CNS = system: SF-539 CNS
SK-MEL-2 melanoma = system: SK-MEL-2 melanoma
SNB-19 CNS = system: SNB-19 CNS
U251 CNS = system: U251 CNS
UO-31 renal = system: UO-31 renal

N#Cc1ccc(NC(=NCC(=O)O)Nc2ccc3ccccc3c2)cc1
TGI (786-0 renal): > 10 µM
TGI (A549 NSCLC): > 10 µM
TGI (CAKI-1 renal): > 10 µM
TGI (CCRF-CEM leukemia): > 10 µM
TGI (COLO 205 colon): > 10 µM
TGI (DU-145 prostate): > 10 µM
TGI (EKVX NSCLC): > 10 µM
TGI (HCC-2998 colon): > 10 µM
TGI (HCT-15 colon): > 10 µM
TGI (HL-60(TB) leukemia): > 10 µM
TGI (HOP-62 NSCLC): > 10 µM
TGI (HT29 colon): > 10 µM
TGI (IGROV1 ovarian): > 10 µM
TGI (K-562 leukemia): > 10 µM
TGI (KM12 colon): > 10 µM
TGI (M14 melanoma): > 10 µM
TGI (MALME-3M melanoma): > 10 µM
TGI (MCF7 breast): > 10 µM
TGI (MDA-MB-231 breast): > 10 µM
TGI (MDA-N): > 10 µM
TGI (MOLT-4 leukemia): > 10 µM
TGI (NCI-H23 lung): > 10 µM
TGI (OVCAR-8 ovarian): > 10 µM
TGI (PC-3 prostate): > 10 µM
TGI (RPMI-8226 leukemia): > 10 µM
TGI (RXF 393 renal): > 10 µM
TGI (SF-268 CNS): > 10 µM
TGI (SF-295 CNS): > 10 µM
TGI (SK-MEL-28 melanoma): > 10 µM
TGI (SK-MEL-5 melanoma): > 10 µM
TGI (SK-OV-3 ovarian): > 10 µM
TGI (SN12C renal): > 10 µM
TGI (SNB-75 CNS): > 10 µM
TGI (SR leukemia): > 10 µM
TGI (SW-620 colon): > 10 µM
TGI (T-47D breast): > 10 µM
TGI (TK-10 renal): > 10 µM
TGI (UACC-257 melanoma): > 10 µM
TGI (UACC-62 melanoma): > 10 µM

COc1ccc(/C=C2\CC(C)CC3C2=NN(C(C)=O)C3c2ccc(OC)c(OC)c2)cc1OC (centres undefined)
GI50 (786-0 renal): 12.9 µM
TGI (786-0 renal): 27.4 µM
GI50 (A498 renal): 15.9 µM
TGI (A498 renal): 31 µM
GI50 (A549 NSCLC): 18.7 µM
TGI (A549 NSCLC): 77.8 µM
GI50 (ACHN renal): 17.6 µM
TGI (ACHN renal): 46.5 µM
GI50 (BT-549 breast): 19 µM
TGI (BT-549 breast): 37.9 µM
GI50 (CAKI-1 renal): 53.3 µM
TGI (CAKI-1 renal): > 100 µM
GI50 (CCRF-CEM leukemia): 20.8 µM
TGI (CCRF-CEM leukemia): 68.8 µM
GI50 (COLO 205 colon): 11.1 µM
TGI (COLO 205 colon): 27.7 µM
GI50 (DU-145 prostate): 19.7 µM
TGI (DU-145 prostate): 47.8 µM
GI50 (EKVX NSCLC): 19.2 µM
TGI (EKVX NSCLC): 70.1 µM
GI50 (HCC-2998 colon): 12 µM
TGI (HCC-2998 colon): 24.3 µM
GI50 (HCT-116 colon): 13.7 µM
TGI (HCT-116 colon): 26.6 µM
GI50 (HCT-15 colon): 15.4 µM
TGI (HCT-15 colon): 32.8 µM
GI50 (HL-60(TB) leukemia): 12.6 µM
TGI (HL-60(TB) leukemia): 52.1 µM
GI50 (HOP-62 NSCLC): 17.1 µM
TGI (HOP-62 NSCLC): 37.2 µM
GI50 (HOP-92 NSCLC): 13.8 µM
TGI (HOP-92 NSCLC): 33.5 µM
GI50 (HS 578T breast): 26.2 µM
TGI (HS 578T breast): 61.3 µM
GI50 (HT29 colon): 22.4 µM
TGI (HT29 colon): > 100 µM
GI50 (IGROV1 ovarian): 20.2 µM
TGI (IGROV1 ovarian): 50.6 µM
GI50 (K-562 leukemia): 13 µM
TGI (K-562 leukemia): > 100 µM
GI50 (KM12 colon): 19.7 µM
TGI (KM12 colon): 42.1 µM
GI50 (LOX IMVI melanoma): 17.7 µM
TGI (LOX IMVI melanoma): 34.8 µM
GI50 (M14 melanoma): 15.1 µM
TGI (M14 melanoma): 28.7 µM
GI50 (MALME-3M melanoma): 20.1 µM
TGI (MALME-3M melanoma): 36.3 µM
GI50 (MCF7 breast): 14.4 µM
TGI (MCF7 breast): 30.6 µM
GI50 (MDA-MB-231 breast): 24.5 µM
TGI (MDA-MB-231 breast): > 100 µM
GI50 (MDA-MB-435): 18.6 µM
TGI (MDA-MB-435): 39.4 µM
GI50 (MOLT-4 leukemia): 12.6 µM
TGI (MOLT-4 leukemia): 43.6 µM
GI50 (NCI-H226 lung): 18.8 µM
TGI (NCI-H226 lung): > 100 µM
GI50 (NCI-H23 lung): 14.9 µM
TGI (NCI-H23 lung): 29.3 µM
GI50 (NCI-H460 lung): 15.5 µM
TGI (NCI-H460 lung): 34.9 µM
GI50 (NCI-H522 lung): 14.5 µM
TGI (NCI-H522 lung): 40.4 µM
GI50 (NCI/ADR-RES ovarian): 12.8 µM
TGI (NCI/ADR-RES ovarian): 43 µM
GI50 (OVCAR-3 ovarian): 18 µM
TGI (OVCAR-3 ovarian): 46 µM
GI50 (OVCAR-4 ovarian): 19.7 µM
TGI (OVCAR-4 ovarian): 84.3 µM
GI50 (OVCAR-5 ovarian): 17.5 µM
TGI (OVCAR-5 ovarian): 33.8 µM
GI50 (OVCAR-8 ovarian): 23.5 µM
TGI (OVCAR-8 ovarian): > 100 µM
GI50 (PC-3 prostate): 13.8 µM
TGI (PC-3 prostate): > 100 µM
GI50 (RPMI-8226 leukemia): 8.19 µM
TGI (RPMI-8226 leukemia): 32 µM
GI50 (RXF 393 renal): 17.9 µM
TGI (RXF 393 renal): 39 µM
GI50 (SF-268 CNS): 14.6 µM
TGI (SF-268 CNS): 31.8 µM
GI50 (SF-295 CNS): 19.9 µM
TGI (SF-295 CNS): 50.2 µM
GI50 (SF-539 CNS): 20.2 µM
TGI (SF-539 CNS): 37.8 µM
GI50 (SK-MEL-2 melanoma): 15.4 µM
TGI (SK-MEL-2 melanoma): 30 µM
GI50 (SK-MEL-28 melanoma): 21.8 µM
TGI (SK-MEL-28 melanoma): 46.9 µM
GI50 (SK-MEL-5 melanoma): 12.7 µM
TGI (SK-MEL-5 melanoma): 27.4 µM
GI50 (SK-OV-3 ovarian): 31 µM
TGI (SK-OV-3 ovarian): 75.7 µM
GI50 (SN12C renal): 22.7 µM
TGI (SN12C renal): 62.3 µM
GI50 (SNB-19 CNS): 17.7 µM
TGI (SNB-19 CNS): 39.4 µM
GI50 (SNB-75 CNS): 24.8 µM
TGI (SNB-75 CNS): 54.3 µM
GI50 (SR leukemia): 22.9 µM
TGI (SR leukemia): 74.4 µM
GI50 (SW-620 colon): 26.1 µM
TGI (SW-620 colon): 67.1 µM
GI50 (T-47D breast): 2.68 µM
TGI (T-47D breast): 9.42 µM
GI50 (TK-10 renal): 65 µM
TGI (TK-10 renal): > 100 µM
GI50 (U251 CNS): 14.3 µM
TGI (U251 CNS): 28 µM
GI50 (UACC-257 melanoma): 18.1 µM
TGI (UACC-257 melanoma): 33.9 µM
GI50 (UACC-62 melanoma): 16.2 µM
TGI (UACC-62 melanoma): 33.3 µM
GI50 (UO-31 renal): 13.3 µM
TGI (UO-31 renal): 29.6 µM

NC(N)=NS(=O)(=O)c1ccc(NC(=O)c2c3ccccc3nc3ccccc23)cc1
TGI (786-0 renal): > 100 µM
TGI (A498 renal): > 100 µM
TGI (A549 NSCLC): > 100 µM
TGI (ACHN renal): > 100 µM
TGI (BT-549 breast): > 100 µM
TGI (CAKI-1 renal): > 100 µM
TGI (CCRF-CEM leukemia): > 100 µM
TGI (COLO 205 colon): > 100 µM
TGI (DU-145 prostate): > 100 µM
TGI (EKVX NSCLC): > 100 µM
TGI (HCC-2998 colon): > 100 µM
TGI (HCT-116 colon): > 100 µM
TGI (HCT-15 colon): > 100 µM
TGI (HOP-62 NSCLC): > 100 µM
TGI (HOP-92 NSCLC): > 100 µM
TGI (HT29 colon): > 100 µM
TGI (IGROV1 ovarian): > 100 µM
TGI (KM12 colon): > 100 µM
TGI (LOX IMVI melanoma): > 100 µM
TGI (M14 melanoma): > 100 µM
TGI (MALME-3M melanoma): > 100 µM
TGI (MCF7 breast): > 100 µM
TGI (MDA-MB-231 breast): > 100 µM
TGI (MDA-MB-435): > 100 µM
TGI (MDA-N): > 100 µM
TGI (MOLT-4 leukemia): > 100 µM
TGI (NCI-H226 lung): > 100 µM
TGI (NCI-H23 lung): > 100 µM
TGI (NCI-H460 lung): > 100 µM
TGI (NCI-H522 lung): > 100 µM
TGI (NCI/ADR-RES ovarian): > 100 µM
TGI (OVCAR-3 ovarian): > 100 µM
TGI (OVCAR-4 ovarian): > 100 µM
TGI (OVCAR-5 ovarian): > 100 µM
TGI (OVCAR-8 ovarian): > 100 µM
TGI (PC-3 prostate): > 100 µM
TGI (RPMI-8226 leukemia): > 100 µM
TGI (SF-268 CNS): > 100 µM
TGI (SF-295 CNS): > 100 µM
TGI (SF-539 CNS): > 100 µM
TGI (SK-MEL-2 melanoma): > 100 µM
TGI (SK-MEL-28 melanoma): > 100 µM
TGI (SK-MEL-5 melanoma): > 100 µM
TGI (SK-OV-3 ovarian): > 100 µM
TGI (SN12C renal): > 100 µM
TGI (SNB-19 CNS): > 100 µM
TGI (SNB-75 CNS): > 100 µM
TGI (SR leukemia): > 100 µM
TGI (SW-620 colon): > 100 µM
TGI (TK-10 renal): > 100 µM
TGI (U251 CNS): > 100 µM
TGI (UACC-257 melanoma): > 100 µM
TGI (UACC-62 melanoma): > 100 µM
TGI (UO-31 renal): > 100 µM
